Results taken from US20070122471A1, “Method of improving suitability for granulation” (Takeda Pharmaceutical Company Limited, priority 2003, published 2007).

Test: Wettability to binder: contact angle of binder liquid on molded product
Format: physicochemical
Conditions: for Contact angle with respect to molded product: immediately after dropping about 10 μL
Text: The bulk molded product of Compound X used in Example 1, and Compound X, lactose and crystalline cellulose in Table 1 (this mixture being referred to as a granulation component) were examined on the effect of the surfactant on the wettability to a binder (10% PVP) solution for the molded product. As a binding liquid, a solution of a binder alone (A), a solution of binder+a 1% polysorbate 80 (B), and a solution of a binder+1% sodium lauryl sulfate (C) were used, and contact angle thereof were measured by using the following method.
About 300 mg of the bulk or the granulation component was weighed, and compression molded using a plain mortar and pestle of 10.0 mmφ by an autograph (manufactured by Shimadzu Co.) under the conditions of a tableting pressure of 10 kN/pestle and a tableting speed of 10 mm/min, thus to obtain a bulk molded product or a molded product of the granulation components. Onto the flat portion of each of the molded products, about 10 μL of the above-described binder liquid was dropped using a Microsyringe (manufactured by ITO SEISAKUSHO CO., LTD.), and the solid and liquid interface immediately after dropping was photographed by a digital microscope (Keyence). After photographing, using an accompanying software, the angle between the liquid surface and the solid surface was measured and referred to as an […].

SMILES: COc1cccc([C@H]2O[C@H](CC(=O)Nc3cccc(CCC(=O)O)c3)C(=O)N(CC(C)(C)CO)c3ccc(Cl)cc32)c1OC [Compound X, 3-[3-[[(3R,5S)-7-chloro-5-(2,3-dimethoxyphenyl)-1-(3-hydroxy-2,2-dimethylpropyl)-2-oxo-1,2,3,5-tetrahydro-4,1-benzoxazepine-3-yl]acetyl]aminophenyl]propionic acid]
- Contact angle with respect to molded product (binder liquid (A): binder (10% PVP) alone): 56 °
- Contact angle with respect to molded product (binder liquid (B): binder (10% PVP) + 1% polysorbate 80): 33 °
- Contact angle with respect to molded product (binder liquid (C): binder (10% PVP) + 1% sodium lauryl sulfate): 28 °
- Wettability to the binder liquid (surfactant incorporated into the binder liquid): remarkably improved
